Assay [1] relates to PCP-treated rats. The settings on record: background statement; cited from earlier work.
For assay [2], the system named is PCP-treated rats. The assay is described as follows: Novel object recognition test, sub-chronic PCP model of schizophrenia. The settings on record: risperidone 0.1 mg/kg i.p. 60 min prior to testing. The assay is classed as in vivo, rat. The protocol:
(§1) Female hooded-Lister rats were used for this experiment. Rats were housed in groups of 5 under standard laboratory conditions under a 12 hr light: dark cycle, lights on at 0700 hr. Testing was carried out in the light phase.
(§2) Rats were randomly assigned to two treatment groups and treated with vehicle, n=20 (distilled water, i.p.) or Phencyclidine hydrochloride (PCP), n=100 (2 mg/kg, i.p. twice daily for 7-days). PCP was dissolved in distilled water. This was followed by a 7-day wash out period before the rats were tested following acute treatment with CBDV, risperidone or vehicle.
(§3) Risperidone (0.1 mg/kg) was dissolved in a minimum volume of acetic acid, made up to volume with distilled water and pH adjusted to 6 with 0.1M NaOH and administered via the i.p. route in a volume of 1 ml/kg, 60 min prior to testing.
(§4) CBDV at 2, 10 or 20 mg/kg was dissolved in 2:1:17 (Ethanol:Cremofor:Saline 0.9%) and administered via the i.p. route in a volume of 5 ml/kg, 60 min prior to testing.
Rats were allowed to habituate to the empty test box and the behavioural test room environment for 1h on day 1. Prior to behavioural testing on day 2 rats are given a further 3 min habituation.
Following the 3 min habituation period, the rats are given two 3 min trials (T1 and T2) which are separated by a 1 min inter-trial interval in the home cage during which the objects are changed. Behaviour in all trials was recorded on video for subsequent blind scoring.
In this trial, the animals are allowed to explore two identical objects (A1 and A2) for 3 min.
In this trial, the animals explore a familiar object (A) from T1 and a novel object (B) for 3 min. The familiar object presented during T2 is a duplicate of the object presented in T1 in order to avoid any olfactory trails.
The object exploration is defined by animals licking, sniffing or touching the object with the forepaws whilst sniffing, but not leaning against, turning around, standing or sitting on the object. The exploration time (s) of each object (A, B, familiar and novel) in each trial are recorded using two stopwatches and the following factors are calculated:
Discrimination index (DI), which is calculated as shown below: […]

Assay [3] has as its system PCP-treated rats. The assay is described as follows: Social interaction test, sub-chronic PCP model of schizophrenia. The assay is classed as in vivo, rat. The protocol: as §1, §2, §3, §4
The social interaction test is performed in an open-field comprising a square box made of Plexiglas (52×52×31 cm) placed 27 cm above the floor on a moveable trolley. The floor of the box is white with black gridlines forming 9 identical squares on it. All other walls are black. A video camera connected to a video recorder and monitor is positioned above the box. The object used for the test consists of a heavy structure made of metal that cannot be displaced by the animals.
The rats were habituated to the test environment and arena prior to the test day. Habituation consists of placing all rats from one cage together in the empty test arena for one hour for three days including the day before the test day.
Pairs of rats, weight matched (15-20 g) and unfamiliar to each other, receiving either no treatment (n=70 “conspecific” rats) or different treatments (PCP and Vehicle; n=10 “tested” rats or PCP+Drug; n=50 “tested” rats) were placed in the test arena together for 10 min and behaviour assessed as described below.
An inanimate object such as an unopened drinks can is also placed in the centre of the arena to measure any differences in interaction of the test animal with an unfamiliar animal as opposed to an unfamiliar object. After each 10 minute trial, the object and arena are cleaned with 10% alcohol in an attempt to remove traces of any olfactory cues. All testing is carried out under standard room illumination levels (70 cd/m2).
Behaviour in both trials was recorded on video for subsequent blind scoring. A behavioural scoring software program (Hindsight, Scientific programming services) is used to score the following parameters: • Investigative sniffing behaviour: sniffing the conspecific's snout or parts of the body including the anogenital region; • Following: rat moves after the conspecific i.e. a vehicle treated rat of the same species, around the arena; • Avoidances: actively turning away when approached by the conspecific animal; • Investigation of object: exploration of object placed in centre of the arena; and • Locomotor activity is recorded by counting the total number of sectors (i.e. lines) crossed by the test rat. Results

Consider `Cc1nc2n(c(=O)c1CCN1CCC(c3noc4cc(F)ccc34)CC1)CCCC2` [risperidone, reference compound], for which the “PCP-induced deficit in the novel object recognition (NOR) test” value with PCP-treated rats [1] is on record as “can attenuate the deficit”. Besides, the “time spent investigating two identical objects in Trial 1 (FIG. 16A)” value in the assay on PCP-treated rats [2] is given as “no real preference”. Besides, in the assay with PCP-treated rats [3] (risperidone 0.1 mg/kg i.p.), the “PCP effects on social interaction (sniffing, following, avoiding) (FIG. 18)” value is on record as “reverse these effects in a statistically significant manner”. Moreover, in the assay with PCP-treated rats [3] (risperidone 0.1 mg/kg, time increased over PCP alone), the “time spent following the other rat (FIG. 18B)” value is recorded as “not seen to be significant”.

Values taken from patent publication US11752111B2, “Use of cannabidivarin in the treatment of autism spectrum disorder, associated disorders and schizophrenia” (GW Research Limited, priority 2016, dated 2023).
